Publication PMC10838102 (Journal of Experimental Pharmacology, 2024)

What was measured:
Caco-2 cell monolayer = Caco-2 cell monolayer permeability assay with LC-MS/MS analysis; settings: 2-hour permeability experiment
[1] = concurrent administration of 2 g of curcumin and 5 mg of piperine; cited from earlier work
[2] = with piperine; cited from earlier work

Row | Papp classification (Caco-2 cell monolayer) | Compound | increase in curcumin's bioavailability [1] | increase of bioavailability of curcumin [2]
1 | high | CC(C)NCC(O)COc1cccc2ccccc12 (stereo not drawn) [propranolol] | – | –
2 | – | COc1cc(/C=C/C(=O)CC(=O)/C=C/c2ccc(O)c(OC)c2)ccc1O [curcumin] | approximately a twofold increase | 20 folds
